Patent US20090270435A1 (priority 2006, published 2009)
Structures can show the parent of a compound that is named as a salt.

Target: T1, ACC1 from rat liver (Rattus norvegicus, UniProt P11497)
T1 construct: The livers (for ACC1 preparation) or skeletal muscle tissue (for ACC2 preparation) are removed; from tissue; host or cells: liver of male CD rats (fasted, then fed a high sucrose diet)
Test: Direct inhibition of ACC1 activity (14C-bicarbonate incorporation)
Assay type: biochemical
Conditions: ACC1 from rat liver
Experimental: [1] Preparation of ACC1 and ACC2.
Male CD rats weighing 150-200 g are fasted for 2 days and then fed a high sucrose diet (AIN-76A rodent diet; Cat # D10001, Research Diets Inc., New Brunswick, N.J.), for 3 days at which time they are sacrificed by CO2 asphyxiation. The livers (for ACC1 preparation) or skeletal muscle tissue (for ACC2 preparation) are removed, rinsed in ice-cold phosphate-buffered saline (PBS), and homogenized in 5 volumes of homogenization buffer (50 mM potassium phosphate, pH 7.5, 10 mM EDTA, 10 mM 2-mercaptoethanol, 2 mM benzamidine, 0.2 mM phenylmethylsulfonylfluoride (PMSF), 5 mg/L each leupeptin, aprotinin, and antitrypsin) in a Waring® blender for 1 minute at 4° C. All subsequent operations are carried out at 4° C. The homogenate is made 3% with respect to polyethylene glycol (PEG) by the addition of 50% PEG solution and centrifuged at 20,000×g for 15 minutes. The resulting supernatant is adjusted to 5% PEG with the addition of 50% PEG solution and stirred for 5 minutes. The pellet (contains ACC activity) is collected by centrifugation at 20,000×g for 20 minutes, rinsed with Ice-cold doubly distilled water to remove excess PEG and re-suspended in one-fourth the original homogenate volume with homogenization buffer. Ammonium sulfate (200 g/liter) is slowly added with stirring. After 45 minutes the enzyme is collected by centrifugation for 30 minutes at 20,000×g, re-suspended in 10 ml of 50 mM HEPES, pH7.5, 0.1 mM DTT, 1.0 mM EDTA, and 10% glycerol and desalted on a Sephadex™ G-25 column (2.5 cm-x 50 cm) (Pharmacia, Piscataway N.J. now GE Healthcare) […] equilibrated with the same buffer. The desalted enzyme preparation is stored in aliquots at −70° C. Immediately prior to use, frozen ACC1 or ACC2 aliquots are thawed, diluted to 500 μg/ml in buffer containing 50 mM HEPES, pH7.5, 1.0 mM MgCl2, 10 mM tripotassium citrate, 2.0 mM dithiothreitol (DTT), and 0.75 mg/ml fatty acid-free bovine serum albumin (BSA) and pre-incubated at 37° C. for 30 minutes.
[2] Measurement of ACC inhibition. The procedures for measuring ACC1 inhibition and ACC2 inhibition are identical except for the source of the isozyme. For measurement of ACC activity and assessment of ACC inhibition, test compounds are dissolved in dimethylsulfoxide (DMSO) and 1 μL aliquots are placed in 0.5 ml polypropylene tubes. Control tubes contain 1 μL of DMSO alone. Tubes are incubated at 37° C. in a constant temperature water bath. […] The reaction is then initiated by the addition of 10 μL of preincubated ACC fraction prepared as described above. After 7 minutes the reaction is terminated by the addition of 50 μL of 6N HCl and a 150 μL aliquot of the reaction mixture is transferred to glass scintillation vials and evaporated to dryness at 90° C. for at least 1 hour. The dried vials are then cooled, 0.5 ml of water and 5.5 ml of Ready Safe liquid scintillation fluid (Beckman Coulter Inc., Fullerton, Calif.) are added, and the radioactivity is determined using a liquid scintillation counter. Tubes that received HCl before ACC served as blanks.

Row | SMILES | IC50
1 | Cc1cc(C(=O)N2CCC3(CC2)CC(=O)c2cc(C#N)ccc2O3)cc2cn[nH]c12 [Ex. A31, 1′-[(7-methyl-1H-indazol-5-yl)carbonyl]-4-oxo-3,4-dihydrospiro[chromene-2,4-piperidine]+carbonitrile] | 234 nM
2 | Cc1cc(C(=O)N2CCC3(CC2)CC(=O)c2ccc(C#N)cc2O3)cc2cn[nH]c12 [Ex. A32, 1′-[(7-methyl-1H-indazol-5-yl)carbonyl]H-oxo-3,4-dihydrospiro[chromene-2,4′-piperidine]-7-carbonitrile] | 277 nM
3 | Cc1cc(C(=O)N2CCC3(CC2)CC(=O)c2cc(C(=O)O)ccc2O3)cc2cn[nH]c12 [Ex. A33, 1′-[(7-methyl-1H-indazol-5-yl)carbonyl]-4-oxo-3,4-dihydrospiro[chromene-2,4′-piperidine]-6-carboxylic acid trifluoroacetic acid salt] | 303 nM
4 | Cc1cc(C(=O)N2CCC3(CC2)CC(=O)c2ccc(-c4ccccc4)cc2O3)cc2cn[nH]c12 [Ex. A34, 1′-[(7-methyl-1H-indazol-5-yl)carbonyl]-7-phenylspiro[chromene-2,4′-piperidin]-4(3H)-one] | 395 nM
5 | Cc1cc(C(=O)N2CCC3(CC2)CC(=O)c2cc(S(C)(=O)=O)ccc2O3)cc2cn[nH]c12 [Ex. A35, 1′-[(7-methyl-1H-indazol-5-yl)carbonyl]-6-(methylsulfonyl)spiro[chromene-2,4′-piperidin]-4(3H)-one] | 1110 nM
6 | Cc1cc2c(cc1C)C(=O)CC1(CCN(C(=O)c3cc(Cl)c4[nH]ncc4c3)CC1)O2 [Ex. B1, 1′-[(7-chloro-1H-indazol-5-yl)carbonyl]-6,7-dimethylspiro[chromene-2,4′-piperidin]-4(3H)-one] | 24.1 nM
7 | COc1ccc2c(c1)OC1(CCN(C(=O)c3cc(Cl)c4[nH]ncc4c3)CC1)CC2=O [Ex. B7, 1′-[(7-chloro-1H-indazol-5-yl)carbonyl]-7-methoxyspiro[chromene-2,4′-piperidin]-4(3H)-one] | 166 nM
8 | O=C1CC2(CCN(C(=O)c3cc(Cl)c4[nH]ncc4c3)CC2)Oc2cc(Cl)c(F)cc21 [Ex. B10, 7-chloro-1′-[(7-chloro-1H-indazol-5-yl)carbonyl]-6-fluorospiro[chromene-2,4′-piperidin]-4(3H)-one] | 209 nM
9 | COc1ccc2c(c1F)C(=O)CC1(CCN(C(=O)c3cc(Cl)c4[nH]ncc4c3)CC1)O2 [Ex. B11] | 217 nM
10 | O=C1CC2(CCN(C(=O)c3cc(Cl)c4[nH]ncc4c3)CC2)Oc2ccc(C(F)(F)F)cc21 [Ex. B12, 1′-[(7-chloro-1H-indazol-5-yl)carbonyl]-6-(trifluoromethyl)spiro[chromene-2,4′-piperidin]-4(3H)-one] | 257 nM
11 | N#Cc1ccc2c(c1)C(=O)CC1(CCN(C(=O)c3cc(Cl)c4[nH]ncc4c3)CC1)O2 [Ex. B14, 1′-[(7-chloro-1H-indazol-5-yl)carbonyl]-4-oxo-3,4-dihydrospiro[chromene-2,4-piperidine]carbonitrile] | 331 nM
12 | CCc1cc(C(=O)N2CCC3(CC2)CC(=O)c2cc(C)c(C)cc2O3)cc2cn[nH]c12 [Ex. C1, 1′-[(7-ethyl-1H-indazol-5-yl)carbonyl]-6,7-dimethylspiro[chromene-2,4′-piperidin]-4(3H)-one] | 17.5 nM
13 | CCc1cc(C(=O)N2CCC3(CC2)CC(=O)c2cc(OC)ccc2O3)cc2cn[nH]c12 [Ex. C2, 1′-[(7-ethyl-1H-indazol-5-yl)carbonyl]-6-methoxyspiro[chromene-2,4′-piperidin]-4(3H)-one] | 22.6 nM
14 | CCc1cc(C(=O)N2CCC3(CC2)CC(=O)c2c(OC)cc(C)cc2O3)cc2cn[nH]c12 [Ex. C3, 1′-[(7-ethyl-1H-indazol-5-yl)carbonyl]-5-methoxy-7-methylspiro[chromene-2,4′-piperidin]-4(3H)-one] | 29.5 nM
15 | CCc1cc(C(=O)N2CCC3(CC2)CC(=O)c2cc(Cl)c(C)cc2O3)cc2cn[nH]c12 [Ex. C4, 6-chloro-1′-[(7-ethyl-1H-indazol-5-yl)carbonyl]-7-methylspiro[chromene-2,4′-piperidin]-4(3H)-one] | 30.6 nM
16 | CCc1cc(C(=O)N2CCC3(CC2)CC(=O)c2cc(C(=O)OC)ccc2O3)cc2cn[nH]c12 [Ex. C5, methyl 1′-[(7-ethyl-1H-indazol-5-yl)carbonyl]-4-oxo-3,4-dihydrospiro[chromene-2,4′-piperidine]-6-carboxylate] | 49.5 nM
17 | Cc1cc2c(cc1C)C(=O)CC1(CCN(C(=O)c3ccc4c(cnn4C)c3)CC1)O2 [Ex. D1, 6,7-dimethyl-1′-[(1-methyl-1H-indazol-5-yl)carbonyl]spiro[chromene-2,4′-piperidin]-4(3H)-one] | 57.9 nM
18 | COc1ccc2c(c1)C(=O)CC1(CCN(C(=O)c3ccc4c(cnn4C)c3)CC1)O2 [Ex. D2, 6-methoxy-1′-[(1-methyl-1H-indazol-5-yl)carbonyl]spiro[chromene-2,4′-piperidin]-4(3H)-one] | 216 nM
19 | Cc1cc2c(cc1Cl)C(=O)CC1(CCN(C(=O)c3ccc4c(cnn4C)c3)CC1)O2 [Ex. D3, 6-chloro-7-methyl-1′-[(1-methyl-1H-indazol-5-yl)carbonyl]spiro[chromene-2,4′-piperidin]-4(3H)-one] | 250 nM
20 | Cc1cc2c(cc1C)C(=O)CC1(CCN(C(=O)c3cc(C)c4[nH]nc(C)c4c3)CC1)O2 [Ex. E3, 1′-[(3,7-dimethyl-1H-indazol-5-yl)carbonyl]-6,7-dimethylspiro[chromene-2,4′-piperidin]-4(3H)-one] | 9.8 nM
21 | COC(=O)c1ccc2c(c1)C(=O)CC1(CCN(C(=O)c3cc(C)c4[nH]nc(C)c4c3)CC1)O2 [Ex. E4, methyl 1′-[(3,7-dimethyl-1H-indazol-5-yl)carbonyl]-4-oxo-3,4-dihydrospiro[chromene-2,4′-piperidine]-6-carboxylate] | 54.3 nM
22 | Cc1cc2c(cc1C)C(=O)CC1(CCN(C(=O)c3ccc4c(C)n[nH]c4c3)CC1)O2 [Ex. F1, 6,7-dimethyl-1′-[(3-methyl-1H-indazol-6-yl)carbonyl]spiro[chromene-2,4′-piperidin]-4(3H)-one] | 35.7 nM
23 | COc1ccc2c(c1)C(=O)CC1(CCN(C(=O)c3ccc4c(C)n[nH]c4c3)CC1)O2 [Ex. F2, 6-methoxy-1′-[(3-methyl-1H-indazol-yl)carbonyl]spiro[chromene-2,4′-piperidin]-4(3H)-one] | 49.2 nM
24 | Cc1cc2c(cc1Cl)C(=O)CC1(CCN(C(=O)c3ccc4c(C)n[nH]c4c3)CC1)O2 [Ex. F3, 6-chloro-7-methyl-1′-[(3-methyl-1H-indazol-6-yl)carbonyl]spiro[chromene-2,4′-piperidin]-4(3H)-one] | 107 nM
25 | COC(=O)c1ccc2c(c1)C(=O)CC1(CCN(C(=O)c3ccc4c(C)n[nH]c4c3)CC1)O2 [Ex. F4, methyl 1′-[(3-methyl-1H-indazol-6-yl)carbonyl]-4-oxo-3,4-dihydrospiro[chromene-2,4′-piperidine]-6-carboxylate] | 126 nM
26 | Cc1n[nH]c2cc(C(=O)N3CCC4(CC3)CC(=O)c3cc(C(=O)O)ccc3O4)ccc12 [Ex. F5, 1′-[(3-methyl-1H-indazol-6-yl)carbonyl]-4-oxo-3,4-dihydrospiro[chromene-2,4′-piperidine]-6-carboxylic acid trifluoroacetic acid salt] | 586 nM
27 | Cc1cc2c(cc1C)C(=O)CC1(CCN(C(=O)c3ccc4cn[nH]c4c3)CC1)O2 [Ex. G1, 1-(1H-indazol-6-ylcarbonyl)-6,7-dimethylspiro[chromene-2,4′-piperidin]-4(3H)-one trifluoroacetic acid salt] | 271 nM
